What all share (format): cell-based
Data set [1] has as its system THP-1. Nature of the data set: Cytotoxicity against human THP1 cells assessed as cell death.
Data set [2] addresses C-C chemokine receptor type 2 (Homo sapiens) (UniProt P41597). In words: Binding affinity to CCR2 in human THP1 cells assessed as inhibition of SDF1-mediated monocyte migration after 30 mins by Transwell assay. The settings on record: THP-1.
The target is the same in data set [3]. In words: Binding affinity to CCR2 in human THP1 cells assessed as inhibition of MCP1-mediated monocyte migration after 30 mins by Transwell assay relative to untreated control. The settings on record: THP-1.
Data set [4] has the same target. In words: Binding affinity to CCR2 in human THP1 cells assessed as inhibition of monocyte migration after 30 mins by Transwell assay. As to conditions: THP-1.
The target is the same in data set [5]. In words: Binding affinity to CCR2 in human THP1 cells assessed as inhibition of MCP1-mediated monocyte migration at 10 uM after 30 mins by Transwell assay relative to untreated control. As to conditions: THP-1.

This passage reports Activity and inhibition results from ChEMBL document CHEMBL2396630, “Backbone cyclic helix mimetic of chemokine (C-C motif) receptor 2: a rational approach for inhibiting dimerization of G protein-coupled receptors” (Bioorg Med Chem, 2013).

The source made the active and inactive calls. The calls are words filed in the database; no cut-off is given here. Numbered stars: 1 amine (or outer) side, 2 acyl side, 3 side chain; on linkers, the order of the positions; unused ones are H or OH. Bridge positions count the residues as written; N and C are the ends. Square brackets hold non-standard residues; d marks the D form. Peptide text beside a SMILES is read from it. N(2-Aminoethyl)Gly = O=C(CN(CCN[*:3])[*:1])[*:2]; CO = O=C([*:1])[*:2]; Nlys = NCCCCNCC(=O)O

Sequence of C-C chemokine receptor type 2 (Homo sapiens) (P41597 whole entry, looked up): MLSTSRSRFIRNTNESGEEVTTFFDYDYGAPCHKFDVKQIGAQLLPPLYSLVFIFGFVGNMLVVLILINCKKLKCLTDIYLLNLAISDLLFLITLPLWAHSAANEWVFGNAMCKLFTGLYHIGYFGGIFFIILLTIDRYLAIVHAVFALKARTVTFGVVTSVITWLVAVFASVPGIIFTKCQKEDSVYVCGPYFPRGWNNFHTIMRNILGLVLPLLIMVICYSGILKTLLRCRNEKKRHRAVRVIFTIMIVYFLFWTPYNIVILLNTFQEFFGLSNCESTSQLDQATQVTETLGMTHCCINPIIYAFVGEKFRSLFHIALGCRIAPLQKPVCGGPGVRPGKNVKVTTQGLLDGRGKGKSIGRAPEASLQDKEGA

For `CC[C@H](C)[C@@H]1NC(=O)[C@H](CC(C)C)NC(=O)CN(C(=O)[C@@H](NC(=O)[C@H](CC(C)C)NC(=O)[C@@H](N)CCSC)C(C)C)CCNC(=O)NCCCCN(CC(N)=O)C1=O` (H-MLV[N(2-Aminoethyl)Gly]LI[Nlys]-NH2; linker 4-7 via CO), the Activity entry in data set [1] was “Non-toxic”. Also, the inhibition result in data set [2] and in data set [4] was “inactive” each time. Further, in data set [3], the inhibition result was “Active”. With `CC[C@H](C)[C@H](NC(=O)CN1CCCCNC(=O)NCCN(C(=O)[C@@H](N)CCSC)CC(=O)N[C@@H](C(C)C)C(=O)N[C@@H](C(C)C)C1=O)C(=O)N[C@@H](CC(C)C)C(N)=O` (H-M[N(2-Aminoethyl)Gly]VV[Nlys]IL-NH2; linker 2-5 via CO), the inhibition entry in data set [3] is “inactive”.

On to `CC[C@H](C)[C@H](NC(=O)[C@H](CC(C)C)NC(=O)[C@@H](N)C(C)C)C(=O)N[C@@H](CC(C)C)C(=O)O` (H-VLIL-OH), for which the inhibition entry in data set [5] is “inactive”.

Turning to `CC[C@H](C)[C@H](NC(=O)[C@H](CC(C)C)NC(=O)CN1CCCCNC(=O)NCCNCC(=O)N[C@@H](CC(C)C)C(=O)N[C@@H](C(C)C)C1=O)C(=O)N[C@@H](CC(C)C)C(N)=O` (H-[N(2-Aminoethyl)Gly]LV[Nlys]LIL-NH2; linker 1-4 via CO), the inhibition result in data set [3] is “inactive”. For the compound `CC[C@H](C)[C@H](NC(=O)[C@H](CC(C)C)NC(=O)[C@@H](NC(=O)CN1CCCCNC(=O)NCCNCC(=O)N[C@@H](CCSC)C(=O)N[C@@H](CC(C)C)C1=O)C(C)C)C(=O)N[C@@H](CC(C)C)C(N)=O` (H-[N(2-Aminoethyl)Gly]ML[Nlys]VLIL-NH2; linker 1-4 via CO), the inhibition result in data set [3] was “inactive”. H-LVVLIL-OH: in data set [5], the inhibition entry is “inactive”. On to H-MLVVLIL-OH, for which the inhibition result in data set [5] is “Active”. On to H-VVLIL-OH, for which the inhibition result in data set [5] is “inactive”.
